Experimental data: US6337417B1, “N-phenyltetrahydrophthalamic acid derivatives, methods of producing same, and herbicides containing same as effective components” (Central Glass Co., Ltd., priority 1994, dated 2002)

Assays:
Assay type in all cases: in vivo
Parameters in all cases: key: 5: completely killed; 4: seriously injured; 3: considerably injured; 2: somewhat injured; 1: slightly injured; 0: not injured (normally grown)
Conditions in all cases: 4 weeks after treatment
paddy rice = assay: Experiment 1 flooded soil treatment: injury to paddy rice
Text: (§1) Paddy soil (clay loam) was put into a pot so as to have a surface area of 1/15500 ares. Uniformly mixed seeds of several kinds of weeds, viz., nobie (barnyardgrass, Echinochloa spp.), broad-leaved weeds, hotarui (bulrush, Scirpus juncoides) and tamagayatsuri (small-flowered umbrellaplant, Cyperus difformis), were sown in the surface layer of the soil in each pot, and then paddy rice seedlings at the two- or three-leaved stage were transplanted into each pot to a depth of 2 cm, and water was fed into each pot so as to provide a 3 cm deep water layer on the soil surface. After 3 days, in other words at the initial stage of germination of nobie (barnyardgrass, Echinochloa spp.), a predetermined amount of a selected compound obtained in a manner analogous to Example 8 in the form of diluted aqueous solution was dropped into the water layer in each pot. After that, the pots were kept in a glass chamber to allow the paddy rice and the weeds to grow, and after the lapse of 4 weeks from the treatment with the selected compounds, the herbicidal effects and the degree of injury to the paddy rice were evaluated. In the table, the herbicidal effects and the degree of injury to the paddy rice are indicated by numerical values, which have the following meaning.
(§2) 0: not injured (normally grown)

[1] = test system: nobie (barnyardgrass, Echinochloa spp.); assay: Experiment 1 flooded soil treatment: nobie
Text: as §1, §2

broad-leaved weeds = assay: Experiment 1 flooded soil treatment: broad-leaved weeds
Text: as §1, §2

[2] = test system: hotarui (bulrush, Scirpus juncoides); assay: Experiment 1 flooded soil treatment: hotarui
Text: as §1, §2

[3] = test system: tamagayatsuri (small-flowered umbrellaplant, Cyperus difformis); assay: Experiment 1 flooded soil treatment: tamagayatsuri
Text: as §1, §2

rice = assay: Experiment 2 foliage treatment: rice
Description: (§3) Upon seedling stage (two- or three-leaved stage) of rice, cockspur (Panicum crus-galli), garden radish, aobiyu (slender amaranth, Amaranthus viridis) and mehishiba (henry crabgrass, Digitaria cliaris) which were grown on a cultivated soil put in pots of 1/15500 ares, a selected compound obtained in a manner analogous to Example 8, in suspended wettable powder, was sprayed to each plant. After that, the pots were kept in a glass chamber to allow each plant to grow, and after the lapse of 4 weeks from the treatment with the selected compounds the herbicidal effects were evaluated. The evaluation of the herbicidal effects was similarly conducted as to that of Experiment 1.

[4] = test system: cockspur (Panicum crus-galli); assay: Experiment 2 foliage treatment: cockspur
Description: as §3

garden radish = assay: Experiment 2 foliage treatment: garden radish
Description: as §3

[5] = test system: aobiyu (slender amaranth, Amaranthus viridis); assay: Experiment 2 foliage treatment: aobiyu
Description: as §3

[6] = test system: mehishiba (henry crabgrass, Digitaria cliaris); assay: Experiment 2 foliage treatment: mehishiba
Description: as §3

[7] = test system: ichibi (velvetleaf, Abutilon theophrasti); assay: Experiment 3 foliage treatment: ichibi
Description: as §3, with “ichibi (velvetleaf, Abutilon theophrasti), onamomi (heartleaf cocklebur, Xanthium strumarium) (4L stage), noasagao (blue morningglory, Ipomoea indica)” for “rice, cockspur (Panicum crus-galli), garden radish, aobiyu (slender amaranth, Amaranthus viridis)”, “ooinutade (pale smartweed, Persicaria lapathifolia)” for “mehishiba (henry crabgrass, Digitaria cliaris)”, “1/8850” for “1/15500”

[8] = test system: onamomi (heartleaf cocklebur, Xanthium strumarium); assay: Experiment 3 foliage treatment: onamomi
Description: as §3, with “ichibi (velvetleaf, Abutilon theophrasti), onamomi (heartleaf cocklebur, Xanthium strumarium) (4L stage), noasagao (blue morningglory, Ipomoea indica)” for “rice, cockspur (Panicum crus-galli), garden radish, aobiyu (slender amaranth, Amaranthus viridis)”, “ooinutade (pale smartweed, Persicaria lapathifolia)” for “mehishiba (henry crabgrass, Digitaria cliaris)”, “1/8850” for “1/15500”

[9] = test system: noasagao (blue morningglory, Ipomoea indica); assay: Experiment 3 foliage treatment: noasagao
Description: as §3, with “ichibi (velvetleaf, Abutilon theophrasti), onamomi (heartleaf cocklebur, Xanthium strumarium) (4L stage), noasagao (blue morningglory, Ipomoea indica)” for “rice, cockspur (Panicum crus-galli), garden radish, aobiyu (slender amaranth, Amaranthus viridis)”, “ooinutade (pale smartweed, Persicaria lapathifolia)” for “mehishiba (henry crabgrass, Digitaria cliaris)”, “1/8850” for “1/15500”

[10] = test system: ooinutade (pale smartweed, Persicaria lapathifolia); assay: Experiment 3 foliage treatment: ooinutade
Description: as §3, with “ichibi (velvetleaf, Abutilon theophrasti), onamomi (heartleaf cocklebur, Xanthium strumarium) (4L stage), noasagao (blue morningglory, Ipomoea indica)” for “rice, cockspur (Panicum crus-galli), garden radish, aobiyu (slender amaranth, Amaranthus viridis)”, “ooinutade (pale smartweed, Persicaria lapathifolia)” for “mehishiba (henry crabgrass, Digitaria cliaris)”, “1/8850” for “1/15500”

SMILES: CCCOC(=O)C1=C(C(=O)N(C(C)=O)c2cc(SCC(=O)OC)c(Cl)cc2F)CCCC1 [compound 13]
- Injury of Paddy (paddy rice; 12.5 g/10a): 0
- Injury of Paddy (paddy rice; 25 g/10a): 0.5
- Herbicidal Effect nobie ([1]; 12.5 g/10a): 5
- Herbicidal Effect nobie ([1]; 25 g/10a): 5
- Herbicidal Effect broad-leaved weed (broad-leaved weeds; 12.5 g/10a): 5
- Herbicidal Effect broad-leaved weed (broad-leaved weeds; 25 g/10a): 5
- Herbicidal Effect hotarui ([2]; 12.5 g/10a): 4
- Herbicidal Effect hotarui ([2]; 25 g/10a): 4
- Herbicidal Effect tamagayatsuri ([3]; 12.5 g/10a): 5
- Herbicidal Effect tamagayatsuri ([3]; 25 g/10a): 5
- Herbicidal Effect rice (rice; 40 g/10a): 1
- Herbicidal Effect rice (rice; 80 g/10a): 1
- Herbicidal Effect cockspur ([4]; 40 g/10a): 2
- Herbicidal Effect cockspur ([4]; 80 g/10a): 2
- Herbicidal Effect garden radish (garden radish; 40 g/10a): 5
- Herbicidal Effect garden radish (garden radish; 80 g/10a): 5
- Herbicidal Effect aobiyu ([5]; 40 g/10a): 5
- Herbicidal Effect aobiyu ([5]; 80 g/10a): 5
- Herbicidal Effect mehishiba ([6]; 40 g/10a): 1
- Herbicidal Effect mehishiba ([6]; 80 g/10a): 1
- Herbicidal Effect ichibi ([7]; 4 g/10a): 5
- Herbicidal Effect ichibi ([7]; 8 g/10a): 5
- Herbicidal Effect onamomi ([8]; 4 g/10a): 5
- Herbicidal Effect onamomi ([8]; 8 g/10a): 5
- Herbicidal Effect noasagao ([9]; 4 g/10a): 5
- Herbicidal Effect noasagao ([9]; 8 g/10a): 5
- Herbicidal Effect ooinutade ([10]; 4 g/10a): 5
- Herbicidal Effect ooinutade ([10]; 8 g/10a): 5

SMILES: COC(=O)C1=C(C(=O)N(C(C)=O)c2cc(SC(C)C(=O)OC)c(Cl)cc2F)CCCC1 (centres unmarked) [compound 20, N-acetyl-N-[4-chloro-2-fluoro-5-(1-methoxycarbonylethylthio)phenyl]-3,4,5,6-tetrahydrophthalamic acid methyl ester]
- Injury of Paddy (paddy rice; 12.5 g/10a): 0.5
- Injury of Paddy (paddy rice; 25 g/10a): 0.5
- Herbicidal Effect nobie ([1]; 12.5 g/10a): 5
- Herbicidal Effect nobie ([1]; 25 g/10a): 5
- Herbicidal Effect broad-leaved weed (broad-leaved weeds; 12.5 g/10a): 5
- Herbicidal Effect broad-leaved weed (broad-leaved weeds; 25 g/10a): 5
- Herbicidal Effect hotarui ([2]; 12.5 g/10a): 5
- Herbicidal Effect hotarui ([2]; 25 g/10a): 5
- Herbicidal Effect tamagayatsuri ([3]; 12.5 g/10a): 5
- Herbicidal Effect tamagayatsuri ([3]; 25 g/10a): 5
- Herbicidal Effect rice (rice; 40 g/10a): 1
- Herbicidal Effect rice (rice; 80 g/10a): 1
- Herbicidal Effect cockspur ([4]; 40 g/10a): 2
- Herbicidal Effect cockspur ([4]; 80 g/10a): 2
- Herbicidal Effect garden radish (garden radish; 40 g/10a): 5
- Herbicidal Effect garden radish (garden radish; 80 g/10a): 5
- Herbicidal Effect aobiyu ([5]; 40 g/10a): 5
- Herbicidal Effect aobiyu ([5]; 80 g/10a): 5
- Herbicidal Effect mehishiba ([6]; 40 g/10a): 1
- Herbicidal Effect mehishiba ([6]; 80 g/10a): 1
- Herbicidal Effect ichibi ([7]; 4 g/10a): 5
- Herbicidal Effect ichibi ([7]; 8 g/10a): 5
- Herbicidal Effect onamomi ([8]; 4 g/10a): 4
- Herbicidal Effect onamomi ([8]; 8 g/10a): 4
- Herbicidal Effect noasagao ([9]; 4 g/10a): 4
- Herbicidal Effect noasagao ([9]; 8 g/10a): 5
- Herbicidal Effect ooinutade ([10]; 4 g/10a): 5
- Herbicidal Effect ooinutade ([10]; 8 g/10a): 5
